Experimental data reported in US5288720A, “Angiotensin II receptor blocking 2,3,6 substituted quinazolinones” (American Cyanamid Company, priority 1993, dated 1994).

Tested on: ANGIOTENSIN II VASOPRESSOR RESPONSE
Test: AII Challenge: blockade of angiotensin II vasopressor response in conscious SHR
Assay type: in vivo, rat (Conscious Male Okamoto-Aoki SHR)
Conditions: SHR n=2
Summary of the method: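 Conscious male Okamoto-Aoki SHR (16-20 weeks, ~330 g) cannulated in aorta and vena cava under local procaine; angiotensin II (human) 0.05 and 0.1 ug/kg i.v. given before and at 30-300 min after test compound i.v., i.p. or orally. Rise in systolic pressure (mmHg) expressed as % blockade versus each rat's predose response.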

[1] = 3 mg/kg p.o., AII 0.05 mcg/kg IV, 30 min post dose
[2] = 3 mg/kg p.o., AII 0.05 mcg/kg IV, 60 min post dose
[3] = 3 mg/kg p.o., AII 0.05 mcg/kg IV, 90 min post dose
[4] = 3 mg/kg p.o., AII 0.05 mcg/kg IV, 120 min post dose
[5] = 3 mg/kg p.o., AII 0.05 mcg/kg IV, 180 min post dose
[6] = 3 mg/kg p.o., AII 0.1 mcg/kg IV, 30 min post dose
[7] = 3 mg/kg p.o., AII 0.1 mcg/kg IV, 60 min post dose
[8] = 3 mg/kg p.o., AII 0.1 mcg/kg IV, 90 min post dose
[9] = 3 mg/kg p.o., AII 0.1 mcg/kg IV, 120 min post dose
[10] = 3 mg/kg p.o., AII 0.1 mcg/kg IV, 180 min post dose
[11] = 10 mg/kg i.v., AII 0.05 mcg/kg IV, 30 min post dose
[12] = 10 mg/kg i.v., AII 0.05 mcg/kg IV, 60 min post dose
[13] = 10 mg/kg i.v., AII 0.05 mcg/kg IV, 90 min post dose
[14] = 10 mg/kg i.v., AII 0.05 mcg/kg IV, 120 min post dose
[15] = 10 mg/kg i.v., AII 0.05 mcg/kg IV, 180 min post dose
[16] = 10 mg/kg i.v., AII 0.05 mcg/kg IV, 240 min post dose
[17] = 10 mg/kg i.v., AII 0.05 mcg/kg IV, 300 min post dose
[18] = 10 mg/kg i.v., AII 0.1 mcg/kg IV, 30 min post dose
[19] = 10 mg/kg i.v., AII 0.1 mcg/kg IV, 60 min post dose
[20] = 10 mg/kg i.v., AII 0.1 mcg/kg IV, 90 min post dose
[21] = 10 mg/kg i.v., AII 0.1 mcg/kg IV, 120 min post dose
[22] = 10 mg/kg i.v., AII 0.1 mcg/kg IV, 180 min post dose
[23] = 10 mg/kg i.v., AII 0.1 mcg/kg IV, 240 min post dose
[24] = 10 mg/kg i.v., AII 0.1 mcg/kg IV, 300 min post dose
[25] = 3 mg/kg i.v., AII 0.05 mcg/kg IV, 30 min post dose
[26] = 3 mg/kg i.v., AII 0.05 mcg/kg IV, 60 min post dose
[27] = 3 mg/kg i.v., AII 0.05 mcg/kg IV, 90 min post dose
[28] = 3 mg/kg i.v., AII 0.05 mcg/kg IV, 120 min post dose
[29] = 3 mg/kg i.v., AII 0.05 mcg/kg IV, 180 min post dose
[30] = 3 mg/kg i.v., AII 0.05 mcg/kg IV, 240 min post dose
[31] = 3 mg/kg i.v., AII 0.05 mcg/kg IV, 300 min post dose
[32] = 3 mg/kg i.v., AII 0.1 mcg/kg IV, 30 min post dose
[33] = 3 mg/kg i.v., AII 0.1 mcg/kg IV, 60 min post dose
[34] = 3 mg/kg i.v., AII 0.1 mcg/kg IV, 120 min post dose
[35] = 3 mg/kg i.v., AII 0.1 mcg/kg IV, 180 min post dose
[36] = 3 mg/kg i.v., AII 0.1 mcg/kg IV, 240 min post dose
[37] = 3 mg/kg i.v., AII 0.1 mcg/kg IV, 300 min post dose
[38] = 3 mg/kg p.o., AII 0.05 mcg/kg IV, 240 min post dose
[39] = 3 mg/kg p.o., AII 0.1 mcg/kg IV, 240 min post dose

## CCCCc1nc2ccc(C(OC)C3CCCN(C)C3=O)cc2c(=O)n1Cc1ccc(-c2ccccc2-c2nn[nH]n2)cc1 (single isomer, unassigned; isomer 1) [Example 42, 2-Butyl-6-methoxy(1-methyl-2-oxo-3-piperidinyl)methyl]-3-[[2' -1H-tetrazol-5-yl)[1,1'-biphenyl]-4-yl]methyl-4(3H)-quinazolinone isomer 1]
[1]
  % Inhibition of AII vasopressor response: 19%
  Average Change (systolic blood pressure response to AII): 32.5 mmHg
[2]
  % Inhibition of AII vasopressor response: 19%
  Average Change (systolic blood pressure response to AII): 32.5 mmHg
[3]
  % Inhibition of AII vasopressor response: 50%
  Average Change (systolic blood pressure response to AII): 20 mmHg
[4]
  % Inhibition of AII vasopressor response: 19%
  Average Change (systolic blood pressure response to AII): 32.5 mmHg
[5]
  % Inhibition of AII vasopressor response: -2%
  Average Change (systolic blood pressure response to AII): 41 mmHg
[6]
  % Inhibition of AII vasopressor response: 22%
  Average Change (systolic blood pressure response to AII): 35 mmHg
[7]
  % Inhibition of AII vasopressor response: 22%
  Average Change (systolic blood pressure response to AII): 35 mmHg
[8]
  % Inhibition of AII vasopressor response: 13%
  Average Change (systolic blood pressure response to AII): 39 mmHg
[9]
  % Inhibition of AII vasopressor response: 11%
  Average Change (systolic blood pressure response to AII): 40 mmHg
[10]
  % Inhibition of AII vasopressor response: 0%
  Average Change (systolic blood pressure response to AII): 45 mmHg
[11]
  % Inhibition of AII vasopressor response: 100%
  Average Change (systolic blood pressure response to AII): 0 mmHg
[12]
  % Inhibition of AII vasopressor response: 86%
  Average Change (systolic blood pressure response to AII): 5 mmHg
[13]
  % Inhibition of AII vasopressor response: 93%
  Average Change (systolic blood pressure response to AII): 2.5 mmHg
[14]
  % Inhibition of AII vasopressor response: 93%
  Average Change (systolic blood pressure response to AII): 2.5 mmHg
[15]
  % Inhibition of AII vasopressor response: 64%
  Average Change (systolic blood pressure response to AII): 12.5 mmHg
[16]
  % Inhibition of AII vasopressor response: 43%
  Average Change (systolic blood pressure response to AII): 20 mmHg
[17]
  % Inhibition of AII vasopressor response: 43%
  Average Change (systolic blood pressure response to AII): 20 mmHg
[18]
  % Inhibition of AII vasopressor response: 100%
  Average Change (systolic blood pressure response to AII): 0 mmHg
[19]
  % Inhibition of AII vasopressor response: 82%
  Average Change (systolic blood pressure response to AII): 7.5 mmHg
[20]
  % Inhibition of AII vasopressor response: 76%
  Average Change (systolic blood pressure response to AII): 10 mmHg
[21]
  % Inhibition of AII vasopressor response: 65%
  Average Change (systolic blood pressure response to AII): 15 mmHg
[22]
  % Inhibition of AII vasopressor response: 59%
  Average Change (systolic blood pressure response to AII): 17.5 mmHg
[23]
  % Inhibition of AII vasopressor response: 65%
  Average Change (systolic blood pressure response to AII): 15 mmHg
[24]
  % Inhibition of AII vasopressor response: 47%
  Average Change (systolic blood pressure response to AII): 22.5 mmHg

## CCCCc1nc2ccc(C(O)C3CCN(C)C3=O)cc2c(=O)n1Cc1ccc(-c2ccccc2-c2nn[nH]n2)cc1 (single isomer, unassigned; isomer 2) [Example 33, 2-Butyl-6-[hydroxy(1-methyl-2-oxo-3-pyrrolidinyl)methyl-3-[[2'-(1H-tetrazol-5-yl)[1,1'-biphenyl]-4-yl]methyl]-4(3H)-quinazolinone isomer 2]
[25]
  % Inhibition of AII vasopressor response: 100%
  Average Change (systolic blood pressure response to AII): 0 mmHg
[26]
  % Inhibition of AII vasopressor response: 100%
  Average Change (systolic blood pressure response to AII): 0 mmHg
[27]
  % Inhibition of AII vasopressor response: 100%
  Average Change (systolic blood pressure response to AII): 0 mmHg
[28]
  % Inhibition of AII vasopressor response: 100%
  Average Change (systolic blood pressure response to AII): 0 mmHg
[29]
  % Inhibition of AII vasopressor response: 81%
  Average Change (systolic blood pressure response to AII): 7.5 mmHg
[30]
  % Inhibition of AII vasopressor response: 56%
  Average Change (systolic blood pressure response to AII): 17.5 mmHg
[31]
  % Inhibition of AII vasopressor response: 44%
  Average Change (systolic blood pressure response to AII): 22.5 mmHg
[32]
  % Inhibition of AII vasopressor response: 86%
  Average Change (systolic blood pressure response to AII): 7.5 mmHg
[33]
  % Inhibition of AII vasopressor response: 89%
  Average Change (systolic blood pressure response to AII): 6 mmHg
3 mg/kg i.v., AII 0.1 mcg/kg IV, 90 min post dose
  Average Change (systolic blood pressure response to AII): 7.5 mmHg
[34]
  % Inhibition of AII vasopressor response: 81%
  Average Change (systolic blood pressure response to AII): 10 mmHg
[35]
  % Inhibition of AII vasopressor response: 52%
  Average Change (systolic blood pressure response to AII): 25 mmHg
[36]
  % Inhibition of AII vasopressor response: 33%
  Average Change (systolic blood pressure response to AII): 35 mmHg
[37]
  % Inhibition of AII vasopressor response: 38%
  Average Change (systolic blood pressure response to AII): 32.5 mmHg
[1]
  % Inhibition of AII vasopressor response: 80%
  Average Change (systolic blood pressure response to AII): 10 mmHg
[2]
  % Inhibition of AII vasopressor response: 65%
  Average Change (systolic blood pressure response to AII): 17.5 mmHg
[3]
  % Inhibition of AII vasopressor response: 50%
  Average Change (systolic blood pressure response to AII): 25 mmHg
[4]
  % Inhibition of AII vasopressor response: 63%
  Average Change (systolic blood pressure response to AII): 18.5 mmHg
[5]
  % Inhibition of AII vasopressor response: 35%
  Average Change (systolic blood pressure response to AII): 32.5 mmHg
[38]
  % Inhibition of AII vasopressor response: 30%
  Average Change (systolic blood pressure response to AII): 35 mmHg
[6]
  % Inhibition of AII vasopressor response: 63%
  Average Change (systolic blood pressure response to AII): 17.5 mmHg
[7]
  % Inhibition of AII vasopressor response: 47%
  Average Change (systolic blood pressure response to AII): 25 mmHg
[8]
  % Inhibition of AII vasopressor response: 37%
  Average Change (systolic blood pressure response to AII): 30 mmHg
[9]
  % Inhibition of AII vasopressor response: 53%
  Average Change (systolic blood pressure response to AII): 22.5 mmHg
[10]
  % Inhibition of AII vasopressor response: 21%
  Average Change (systolic blood pressure response to AII): 37.5 mmHg
[39]
  % Inhibition of AII vasopressor response: 0%
  Average Change (systolic blood pressure response to AII): 47.5 mmHg
